The data set concerns mice. The data set is described as follows: Single dose i.v. toxicity (LD50) in mice. In kind it is in vivo. How it is done:
In single dose testing in mice, the i.v. 50% lethal dose (LD50) of the SPA-S-843 formulation, obtained according to Example 15, is increased from 70 mg/kg to >200 mg/kg

On to `CNc1ccc(C(=O)CC(O)CC[C@H](C)C2OC(=O)C[C@H](O)CC(=O)C[C@H](O)C[C@H](O)C[C@H](O)C[C@H](O)C[C@]3(O)C[C@H](O)[C@@H](C(=O)NCCN(C)C)[C@H](C[C@@H](O[C@@H]4O[C@H](C)[C@@H](O)[C@H](NC(=O)CN(C)C)[C@@H]4O)/C=C/C=C/C=C/C=C/C=C/C=C/C=C/C2C)O3)cc1.N[C@@H](CC(=O)O)C(=O)O.N[C@@H](CC(=O)O)C(=O)O` (stereo partly shown) [SPA-S-843, N-dimethylaminoacetyl-partricin A 2-dimethylamino-ethylamide diascorbate], for which the “i.v. 50% lethal dose (LD50)” value is 70 mg/kg.

The values above are taken from patent US6586407B1, “Injectable pharmaceutical formulations for partricin derivatives” (Quatex N.V., priority 1998, dated 2003).
